In brackets after ≈: the same amount, converted by molar mass.
Experiments:
Assay in all cases: ≥ marks a high value that may be exact or a test limit, other limits are often not marked, values filed in µg/mL are converted to µM
[1] = tested on: Pseudomonas aeruginosa ATCC 27853
[2] = tested on: Escherichia coli CCT 1371
[3] = tested on: Staphylococcus aureus ATCC 6535
[4] = tested on: Staphylococcus saprophyticus
Bacillus subtilis DELTA = tested on: Bacillus subtilis DELTA
[5] = tested on: Escherichia coli DH5alpha
[6] = tested on: Pseudomonas aeruginosa PAO1
[7] = tested on: Zymomonas mobilis ATCC 10988
Candida parapsilosis = tested on: Candida parapsilosis
[8] = tested on: Escherichia coli ATCC 25922
Candida krusei ATCC 6258 = tested on: Candida krusei ATCC 6258
[9] = tested on: Candida glabrata ATCC 2001
[10] = tested on: Staphylococcus aureus ATCC 29213
[11] = tested on: Candida tropicalis ATCC 750
[12] = tested on: Candida parapsilosis ATCC 90018
[13] = tested on: Candida albicans ATCC 10231
Aureobasidium pullulans = tested on: Aureobasidium pullulans
[14] = tested on: Bacillus subtilis ATCC 23857
Bacillus megaterium = tested on: Bacillus megaterium
[15] = tested on: Corynebacterium glutamicum ATCC 13032
Micrococcus luteus = tested on: Micrococcus luteus
[16] = tested on: Staphylococcus aureus ATCC 9144
[17] = tested on: Staphylococcus aureus MTCC 3160
[18] = tested on: Escherichia coli MTCC 723
[19] = tested on: Pseudomonas aeruginosa MTCC 2295
[20] = tested on: Bacillus subtilis MTCC 2763
[21] = tested on: Staphylococcus aureus ATCC BAA-1720
[22] = tested on: Staphylococcus epidermidis ATCC 51625

Question: `CC[C@H](C)[C@H](NC(=O)[C@H](CO)NC(=O)[C@@H](NC(=O)[C@H](CCCCN)NC(=O)[C@H](Cc1ccccc1)NC(=O)[C@@H]1CCCN1C(=O)[C@@H](N)CCC(=O)O)[C@@H](C)CC)C(=O)N[C@@H](Cc1cnc[nH]1)C(=O)N[C@@H](CC(C)C)C(N)=O` [EPFKISIHL] was tested. Which MIC [1] did it give?
Answer: 27.7 µM (≈ 30 µg/mL)

Question: What about the MIC [2] of the same compound?
Answer: 13.8 µM (≈ 15 µg/mL)

Question: What about the MIC [3] of the same compound?
Answer: 27.7 µM (≈ 30 µg/mL)

Question: And the MIC [4]?
Answer: 27.7 µM (≈ 30 µg/mL)

Question: `CC[C@H](C)[C@H](NC(=O)[C@H](CC(C)C)NC(=O)[C@H](CCC(N)=O)NC(=O)[C@@H](NC(=O)[C@@H](NC(=O)[C@H](CCCN=C(N)N)NC(=O)[C@H](CCCCN)NC(=O)[C@H](Cc1ccccc1)NC(C)=O)[C@@H](C)CC)C(C)C)C(=O)N[C@@H](CCCCN)C(=O)N[C@@H](CC(=O)O)C(=O)N[C@@H](Cc1ccccc1)C(=O)N[C@@H](CC(C)C)C(=O)N[C@@H](CCCN=C(N)N)C(N)=O` [FKRIVQLIKDFLR] was tested. Which MIC (Bacillus subtilis DELTA) did it give?
Answer: 11.9 µM (≈ 20.5 µg/mL)

Question: And the MIC [5]?
Answer: ≥ 59.7 µM

Question: What about the MIC [6] of the same compound?
Answer: 59.7 µM (≈ 102 µg/mL)

Question: What about the MIC [7] of the same compound?
Answer: ≥ 59.7 µM

Question: What about the MIC (Candida parapsilosis) of the same compound?
Answer: ≥ 59.7 µM

Question: How did the MIC [1] turn out when `CC[C@H](C)[C@H](NC(=O)CN)C(=O)N[C@@H](CC(C)C)C(=O)N[C@@H](CC(=O)O)C(=O)N[C@H](C(=O)N[C@@H](CCCCN)C(=O)N[C@@H](CC(N)=O)C(=O)N[C@@H](CCCCN)C(=O)N[C@H](C(=O)N[C@@H](CO)C(=O)N[C@@H](CC(N)=O)C(=O)N[C@@H](CC(C)C)C(=O)N[C@@H](Cc1ccccc1)C(=O)N[C@@H](CCCCN)C(=O)N[C@@H](CCCCN)C(=O)N[C@H](C(=O)N[C@@H](CCCCN)C(=O)NCC(=O)N[C@@H](CCC(=O)O)C(=O)N[C@@H](CCCCN)C(N)=O)[C@@H](C)CC)C(C)C)[C@@H](C)CC` [GILDIKNKVSNLFKKIKGEK] was run?
Answer: > 130 µM

Question: What about the MIC [8] of the same compound?
Answer: > 130 µM

Question: What about the MIC (Candida krusei ATCC 6258) of the same compound?
Answer: ≥ 125 µM

Question: What about the MIC [9] of the same compound?
Answer: ≥ 500 µM

Question: What about the MIC [10] of the same compound?
Answer: > 130 µM

Question: What about the MIC [11] of the same compound?
Answer: ≥ 500 µM

Question: What about the MIC [12] of the same compound?
Answer: ≥ 500 µM

Question: What about the MIC [13] of the same compound?
Answer: 250 µM (≈ 568 µg/mL)

Question: With `C[C@H](NC(=O)[C@H](CCCCN)NC(=O)[C@H](Cc1c[nH]c2ccccc12)NC(=O)[C@H](Cc1c[nH]c2ccccc12)NC(=O)CNC(=O)[C@@H]1CCCN1C(=O)[C@H](CCCCN)NC(=O)[C@H](CCCCN)NC(=O)CN)C(=O)N[C@@H](CCCCN)C(N)=O` [GKKPGWWKAK] as the compound, how does the MIC (Aureobasidium pullulans) read?
Answer: ≥ 52.7 µM

Question: And the MIC [1]?
Answer: > 211 µM

Question: What about the MIC [8] of the same compound?
Answer: > 211 µM

Question: And the MIC [14]?
Answer: ≥ 105 µM

Question: What about the MIC (Bacillus megaterium) of the same compound?
Answer: 3.29 µM (≈ 3.9 µg/mL)

Question: And the MIC [15]?
Answer: 3.29 µM (≈ 3.9 µg/mL)

Question: And the MIC (Micrococcus luteus)?
Answer: ≥ 105 µM

Question: What about the MIC [16] of the same compound?
Answer: ≥ 211 µM

Question: What about the MIC [13] of the same compound?
Answer: 52.7 µM (≈ 62.4 µg/mL)

Question: Which MIC [17] does the source give for `NC(=O)[C@H](CCCN=C(N)N)NC(=O)[C@H](Cc1c[nH]c2ccccc12)NC(=O)[C@H](Cc1c[nH]c2ccccc12)NC(=O)[C@H](CCCN=C(N)N)NC(=O)[C@@H](N)CCCN=C(N)N` [RRWWR] here?
Answer: 29.1 µM (≈ 25 µg/mL)

Question: And the MIC [18]?
Answer: ≥ 87.3 µM

Question: And the MIC [19]?
Answer: ≥ 116 µM

Question: And the MIC [20]?
Answer: ≥ 81.5 µM

Question: What about the MIC [21] of the same compound?
Answer: 29.1 µM (≈ 25 µg/mL)

Question: And the MIC [22]?
Answer: 23.3 µM (≈ 20 µg/mL)

Reference: DBAASP
